Experimental data: patent US7196112B2, “Cell adhesion inhibitors” (Biogen Idec MA Inc., priority 2004, dated 2007)

Key:
EAE = test: Rat EAE model induced with myelin basic protein peptide; format: in vivo; conditions: daily 30 mg/kg s.c.
α4β7 = biological target: T1, α4β7 (Homo sapiens, UniProt P13612+P26010); test: Direct binding assay for α4β7 (VCAM-Ig, JY cells)
T1 construct: host or cells: JY human B-cell line
T1 sequence (P13612 34-1032): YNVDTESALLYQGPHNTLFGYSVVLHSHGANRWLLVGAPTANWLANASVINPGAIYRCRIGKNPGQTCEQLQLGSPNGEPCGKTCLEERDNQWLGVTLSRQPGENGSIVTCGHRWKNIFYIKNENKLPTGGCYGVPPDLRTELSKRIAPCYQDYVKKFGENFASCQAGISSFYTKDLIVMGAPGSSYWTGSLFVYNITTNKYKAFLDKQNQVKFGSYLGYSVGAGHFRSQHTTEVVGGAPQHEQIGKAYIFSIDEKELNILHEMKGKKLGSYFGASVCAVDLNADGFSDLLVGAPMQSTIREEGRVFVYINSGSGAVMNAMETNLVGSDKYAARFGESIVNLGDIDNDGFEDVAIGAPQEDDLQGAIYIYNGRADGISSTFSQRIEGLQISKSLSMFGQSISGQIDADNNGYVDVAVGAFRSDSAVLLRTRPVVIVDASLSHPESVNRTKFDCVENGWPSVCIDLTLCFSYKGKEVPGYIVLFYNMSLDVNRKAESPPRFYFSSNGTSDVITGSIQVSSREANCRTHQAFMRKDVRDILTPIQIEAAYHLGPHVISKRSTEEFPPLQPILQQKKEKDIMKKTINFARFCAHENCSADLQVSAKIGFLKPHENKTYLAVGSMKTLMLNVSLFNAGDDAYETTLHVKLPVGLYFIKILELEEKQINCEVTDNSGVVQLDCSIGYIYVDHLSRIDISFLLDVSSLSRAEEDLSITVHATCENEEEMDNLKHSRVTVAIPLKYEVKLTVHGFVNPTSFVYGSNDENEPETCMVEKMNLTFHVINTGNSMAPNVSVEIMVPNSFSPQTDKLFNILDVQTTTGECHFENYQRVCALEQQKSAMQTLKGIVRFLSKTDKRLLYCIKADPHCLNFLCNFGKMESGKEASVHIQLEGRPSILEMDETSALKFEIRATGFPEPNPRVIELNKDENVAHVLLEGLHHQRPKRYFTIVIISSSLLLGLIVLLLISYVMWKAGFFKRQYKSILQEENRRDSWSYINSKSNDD
T1 sequence (P26010 20-798): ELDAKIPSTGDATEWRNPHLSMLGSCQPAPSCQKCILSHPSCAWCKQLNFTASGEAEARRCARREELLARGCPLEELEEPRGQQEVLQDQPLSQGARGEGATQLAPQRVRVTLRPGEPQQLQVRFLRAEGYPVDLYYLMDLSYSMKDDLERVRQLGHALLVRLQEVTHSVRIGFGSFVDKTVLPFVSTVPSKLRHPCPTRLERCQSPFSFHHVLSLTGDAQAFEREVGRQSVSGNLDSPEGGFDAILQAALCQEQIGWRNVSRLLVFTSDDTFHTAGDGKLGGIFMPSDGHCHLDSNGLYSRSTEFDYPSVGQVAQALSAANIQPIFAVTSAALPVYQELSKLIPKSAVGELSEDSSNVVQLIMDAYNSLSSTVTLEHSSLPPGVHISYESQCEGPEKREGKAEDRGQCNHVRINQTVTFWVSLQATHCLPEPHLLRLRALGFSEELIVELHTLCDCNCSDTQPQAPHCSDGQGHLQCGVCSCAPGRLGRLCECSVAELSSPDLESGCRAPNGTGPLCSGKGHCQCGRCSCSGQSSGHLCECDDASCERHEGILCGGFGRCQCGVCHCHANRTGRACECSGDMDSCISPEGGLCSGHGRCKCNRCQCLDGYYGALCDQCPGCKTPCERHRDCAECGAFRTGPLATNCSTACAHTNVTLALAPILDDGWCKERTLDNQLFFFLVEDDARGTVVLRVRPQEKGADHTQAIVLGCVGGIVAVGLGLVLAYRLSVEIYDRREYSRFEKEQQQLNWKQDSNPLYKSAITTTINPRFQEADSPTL
Method: (§1) The results presented in Table 3 summarize the integrin selectivity for PEGylated inhibitors. The selectivity of the PEGylated inhibitors for the four integrins indicated were tested in adhesion formats for α1β1 and α2β1, and by direct binding for α4β7. Serial dilutions of each compound were tested and IC50 values calculated from the concentration dependence of the inhibition curves. KD values derived from kinetic data are shown for binding to α4β1.

α1β1 = α1β1 (Homo sapiens, UniProt P05556+P56199); test: α1β1/collagen IV cell adhesion assay (K562 transfected with human α1-integrin chain); format: cell-based; conditions: adhesion format, 1 mM MnCl2
Sequence of α1β1 (P56199 29-1179): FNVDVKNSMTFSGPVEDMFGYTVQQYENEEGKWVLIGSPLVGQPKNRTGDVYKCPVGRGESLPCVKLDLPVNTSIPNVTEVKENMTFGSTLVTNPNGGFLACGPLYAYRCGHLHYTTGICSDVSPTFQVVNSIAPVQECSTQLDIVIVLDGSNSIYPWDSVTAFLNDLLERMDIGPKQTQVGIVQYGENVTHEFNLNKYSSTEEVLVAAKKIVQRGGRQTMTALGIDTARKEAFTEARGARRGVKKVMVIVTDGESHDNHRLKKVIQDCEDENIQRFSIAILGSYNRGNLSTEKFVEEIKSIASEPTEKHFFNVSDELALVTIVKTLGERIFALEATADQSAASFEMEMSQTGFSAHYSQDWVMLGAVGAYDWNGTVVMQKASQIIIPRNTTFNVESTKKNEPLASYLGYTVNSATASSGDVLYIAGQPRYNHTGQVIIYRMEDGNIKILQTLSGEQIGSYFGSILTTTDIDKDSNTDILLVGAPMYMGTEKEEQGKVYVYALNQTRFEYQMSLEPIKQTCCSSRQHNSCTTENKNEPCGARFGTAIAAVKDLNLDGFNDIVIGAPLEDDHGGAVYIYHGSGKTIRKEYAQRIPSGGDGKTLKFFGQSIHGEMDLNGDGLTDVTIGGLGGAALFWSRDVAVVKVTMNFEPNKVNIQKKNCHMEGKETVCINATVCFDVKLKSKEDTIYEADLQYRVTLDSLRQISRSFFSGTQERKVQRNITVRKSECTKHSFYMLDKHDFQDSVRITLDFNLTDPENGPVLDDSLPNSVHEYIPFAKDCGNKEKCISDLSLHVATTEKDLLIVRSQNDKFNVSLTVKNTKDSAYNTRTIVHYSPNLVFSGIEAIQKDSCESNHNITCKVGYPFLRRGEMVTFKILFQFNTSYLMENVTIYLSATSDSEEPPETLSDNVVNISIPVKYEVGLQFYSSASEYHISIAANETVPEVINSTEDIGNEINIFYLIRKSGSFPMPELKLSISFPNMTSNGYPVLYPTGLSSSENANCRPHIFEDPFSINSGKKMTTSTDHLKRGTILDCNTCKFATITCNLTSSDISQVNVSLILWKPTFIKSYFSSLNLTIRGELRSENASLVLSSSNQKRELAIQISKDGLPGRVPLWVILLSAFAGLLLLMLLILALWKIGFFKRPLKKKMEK
Sequence of α1β1 (P05556 21-798): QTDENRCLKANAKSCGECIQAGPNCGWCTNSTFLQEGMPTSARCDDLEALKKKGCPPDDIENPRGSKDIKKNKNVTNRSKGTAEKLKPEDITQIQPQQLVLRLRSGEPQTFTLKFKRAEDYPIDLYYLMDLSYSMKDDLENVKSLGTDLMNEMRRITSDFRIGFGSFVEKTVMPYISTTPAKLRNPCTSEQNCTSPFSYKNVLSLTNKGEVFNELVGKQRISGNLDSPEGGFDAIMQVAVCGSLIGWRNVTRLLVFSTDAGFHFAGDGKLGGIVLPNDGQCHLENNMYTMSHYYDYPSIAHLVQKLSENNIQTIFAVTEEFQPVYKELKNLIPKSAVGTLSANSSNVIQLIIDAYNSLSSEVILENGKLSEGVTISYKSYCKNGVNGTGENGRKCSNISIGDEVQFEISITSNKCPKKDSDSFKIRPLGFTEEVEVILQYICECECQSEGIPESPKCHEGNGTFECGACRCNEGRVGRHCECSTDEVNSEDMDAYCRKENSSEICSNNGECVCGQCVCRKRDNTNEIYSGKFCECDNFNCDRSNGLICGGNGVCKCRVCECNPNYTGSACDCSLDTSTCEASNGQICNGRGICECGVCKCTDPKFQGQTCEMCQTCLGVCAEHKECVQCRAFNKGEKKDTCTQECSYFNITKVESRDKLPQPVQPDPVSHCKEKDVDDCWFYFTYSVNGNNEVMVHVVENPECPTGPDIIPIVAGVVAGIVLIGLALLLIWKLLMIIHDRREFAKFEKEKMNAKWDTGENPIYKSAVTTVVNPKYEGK
Method: (§2) The ability of test compounds to block α2β1/collagen I and α1β1/collagen IV interactions were evaluated in cell adhesion assays. Collagen I and collagen IV were immobilized onto a 96-well Corning Easy Wash plate (Corning Cat. No. 25801). Human integrin-expressing cell lines (2×10^5/well) were labeled with a fluorescent compound, 2 μM BCECF-AM (Molecular Probes, Eugene, Oreg., Cat# B1150), and added with or without test compounds. After 30 minutes, the plates were washed, and bound cells quantified in a Cytofluor fluorescence plate reader. The assay buffer was TRIS-buffered saline (TBS: 24 mM TRIS, 137 mM NaCl, 2.7 mM KCl, 2 mM glucose, 0.1% BSA, pH 7.4), containing 1 mM MnCl2. The specificity of binding was controlled for using integrin specific neutralizing monoclonal antibodies. The antibodies were run at 10 μg/mL on each day of the assay and were as follows: anti-α4β1, mAb HP1/2 (Biogen); anti-α2β1, mAb 26G8 (Biogen); and α1β1, mAb AJH10 (Biogen).
as §1, with “KD values derived from kinetic data are shown for binding to α4β1.” left out

α4β1 = α4β1 (Homo sapiens, UniProt P05556+P13612); test: VCAM-Ig direct binding assay (DBA), Jurkat cells
Sequence of α4β1 (P05556 21-798, one chain of several): as the sequence (P05556 21-798) above
Description: A direct binding assay may also be employed to quantitate the inhibitory activity of the compounds. In this assay, a VCAM-IgG fusion protein containing the first two immunoglobulin domains of VCAM (D1D2) attached above the hinge region of an IgG1 molecule (“VCAM 2D-IgG”), is conjugated to a marker enzyme, such as alkaline phosphatase (“AP”). […] The conjugation of that fusion to a marker enzyme is achieved by cross-linking methods well-known in the art.
The VCAM-IgG enzyme conjugate is then placed in the wells of a multi-well filtration plate, such as that contained in the Millipore Multiscreen Assay System (Millipore Corp., Bedford, Mass.). Varying concentrations of the test inhibitory compound are then added to the wells followed by addition of VLA-4-expressing cells. The cells, compound and VCAM-IgG enzyme conjugate are mixed together and allowed to incubate at room temperature. Following incubation, the wells are vacuum drained, leaving behind the cells and any bound VCAM. Quantitation of bound VCAM is determined by adding an appropriate calorimetric substrate for the enzyme conjugated to VCAM-IgG and determining the amount of reaction product. Decreased reaction product indicates increased binding inhibitory activity.
Samples were also evaluated for function using the VCAM-Ig direct binding assay. Details for the construction of the VCAM-Ig animal cell expression vector, the generation of a Chinese hamster ovary (CHO) cell line expressing VCAM-Ig, conjugation of the VCAM-Ig to alkaline phosphatase, and the development of a direct binding assay for characterizing α4β1 and α4β7 binding to VCAM-Ig were as previously described (see Lobb, R. R., et al. (1995) Cell Adhes. Commun. 3:385–397).
For these studies, a series of compounds based on compound E containing 0.35, 2, 5, 20, 30, and 50 kDa-mPEG was synthesized and tested for binding to α4β1 on Jurkat cells with VCAM-Ig as a reporter (see methods).

α2β1 = biological target: T2, α2β1 (Homo sapiens, UniProt P05556+P17301); test: α2β1/collagen I cell adhesion assay (K562 transfected with human α2 integrin chain); format: cell-based; conditions: adhesion format, 1 mM MnCl2
T2 construct: expressed in transfected cells; host or cells: K562 cells transfected with human α2 integrin chain (gift from M. Hemler)
T2 sequence (P17301 30-1181): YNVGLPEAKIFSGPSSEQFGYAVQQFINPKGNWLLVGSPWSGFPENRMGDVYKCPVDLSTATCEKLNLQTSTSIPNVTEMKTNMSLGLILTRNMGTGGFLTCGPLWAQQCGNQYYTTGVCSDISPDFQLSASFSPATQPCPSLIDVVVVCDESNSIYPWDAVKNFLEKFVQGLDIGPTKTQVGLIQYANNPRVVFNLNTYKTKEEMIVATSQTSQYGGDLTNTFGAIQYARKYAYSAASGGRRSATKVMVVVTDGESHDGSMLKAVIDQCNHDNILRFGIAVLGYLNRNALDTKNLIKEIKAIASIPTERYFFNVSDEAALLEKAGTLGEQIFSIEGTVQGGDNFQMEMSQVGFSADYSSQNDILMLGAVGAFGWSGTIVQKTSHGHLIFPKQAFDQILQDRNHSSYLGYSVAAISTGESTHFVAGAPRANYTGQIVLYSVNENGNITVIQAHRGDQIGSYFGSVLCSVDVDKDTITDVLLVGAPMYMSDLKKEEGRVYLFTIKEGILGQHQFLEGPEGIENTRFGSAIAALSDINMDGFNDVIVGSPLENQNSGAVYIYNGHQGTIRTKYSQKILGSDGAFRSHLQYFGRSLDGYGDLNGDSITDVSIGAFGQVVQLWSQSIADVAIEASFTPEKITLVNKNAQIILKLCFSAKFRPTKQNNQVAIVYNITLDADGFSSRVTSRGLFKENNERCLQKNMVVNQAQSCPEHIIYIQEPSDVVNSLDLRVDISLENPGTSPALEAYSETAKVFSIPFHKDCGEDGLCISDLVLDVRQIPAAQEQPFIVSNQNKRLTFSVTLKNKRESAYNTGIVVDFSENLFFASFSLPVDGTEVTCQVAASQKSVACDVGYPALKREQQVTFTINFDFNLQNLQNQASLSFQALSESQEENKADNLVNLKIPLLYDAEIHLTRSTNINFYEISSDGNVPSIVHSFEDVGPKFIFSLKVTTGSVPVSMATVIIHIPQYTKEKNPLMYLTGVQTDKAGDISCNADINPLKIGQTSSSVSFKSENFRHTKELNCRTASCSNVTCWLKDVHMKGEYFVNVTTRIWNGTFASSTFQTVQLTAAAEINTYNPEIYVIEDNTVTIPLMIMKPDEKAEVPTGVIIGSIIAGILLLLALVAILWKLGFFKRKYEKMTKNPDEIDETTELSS
T2 sequence (P05556 21-798): as the sequence (P05556 21-798) above
Method: as §2
as §1, with “KD values derived from kinetic data are shown for binding to α4β1.” left out

| Compound | mean paralytic score reached (EAE) | affinity higher for α4β1 than for α4β7 (α4β7; α4β1 versus α4β7) | IC50 (α1β1) | IC50 (α4β1; DBA IC50 100% rat plasma, 100% rat plasma) | IC50 (α4β1; DBA IC50 Ca2+Mg2+, Ca2+Mg2+) | IC50 (α4β1; DBA IC50 Mn2+, Mn2+) | IC50 (α4β7; direct binding) | IC50 (α2β1) |
| --- | --- | --- | --- | --- | --- | --- | --- | --- |
| Cc1ccccc1NC(=O)Nc1ccc(CC(=O)N(C)[C@@H](CC(C)C)C(=O)NCC[C@H](NC(=O)[C@@H]2CCCN2S(=O)(=O)c2cc(Cl)cc(Cl)c2)C(=O)O)cc1 [Compound R, 2S-{[1-(3,5-dichloro-benzenesulfonyl)-pyrrolidine-2S-carbonyl]-amino}-4-[4-methyl-2S-(methyl-{2-[4-(3-o-tolyl-ureido)-phenyl]-acetyl}-amino)-pentanoylamino]-butyric acid] | 3.0 | > 2,000 fold |  |  |  |  |  |  |
| Cc1ccccc1NC(=O)Nc1ccc(CC(=O)N(C)[C@@H](CC(C)C)C(=O)NCC[C@H](NC(=O)C2CCCN2S(=O)(=O)c2ccccc2)C(=O)O)cc1 (stereo partly drawn) [Compound B, 2S-[(1-benzenesulfonyl-pyrrolidine-2S-carbonyl)-amino]-4-[4-methyl-2S-(methyl-{2-[4-(3-o-tolyl-ureido)-phenyl]-acetyl}-amino)-pentanoylamino]-butyric acid] |  |  | > 10000 nM | 13 nM | 2 nM | 1.2 nM | > 1000 nM | 5000 nM |
